The species named for one assay is Mus musculus. The assay is described as follows: Inhibition of Wnt/beta-catenin pathway in mouse L Wnt3A cells at 10 uM after 48 hrs by TOP-flash dual reporter gene assay relative to control. It is filed as cell-based. In general terms: In a reporter assay the amount or activity of a reporter protein is the signal.
A short description of assay [1]: Inhibition of Wnt/beta-catenin pathway in mouse L Wnt3A cells after 48 hrs by TOP-flash dual reporter gene assay. The settings on record: L Wnt-3A. It is filed as cell-based.

Broadly, the inhibition is the drop in the measured response relative to a control, in per cent. `O=C(CCCN1C(=O)c2c(F)ccc(F)c2C1=O)Nc1ccc(-c2ccccc2)cn1`: the inhibition in the assay filed under Mus musculus is 37%.

As for `Cc1ccc2c(c1)C(=O)N(CCCC(=O)Nc1ccc(-c3ccccc3)cn1)C2=O`, the inhibition in the assay listed under Mus musculus amounted to 20%.

Turning to `O=C(CCCN1C(=O)c2ccc([N+](=O)[O-])cc2C1=O)Nc1ccc(-c2ccccc2)cn1`, the inhibition in the assay filed under Mus musculus was 19%.

For the compound `O=C(CCCN1C(=O)c2c(Cl)c(Cl)c(Cl)c(Cl)c2C1=O)Nc1ccc(-c2ccccc2)cn1`, in the assay listed under Mus musculus, the inhibition is -5%.

As to `O=C(CCCN1C(=O)c2ccc(F)cc2C1=O)Nc1ccc(-c2ccccc2)cn1`, the inhibition in the assay listed under Mus musculus amounted to 20%.

`CC(C)(C)c1ccc2c(c1)C(=O)N(CCCC(=O)Nc1ccc(-c3ccccc3)cn1)C2=O`: the inhibition in the assay listed under Mus musculus worked out at 23%.

As for `O=C(CCCN1C(=O)c2ccc(Cl)cc2C1=O)Nc1ccc(-c2ccccc2)cn1`, the inhibition in the assay filed under Mus musculus stood at 22%.

`O=C(CCCN1C(=O)c2cccc([N+](=O)[O-])c2C1=O)Nc1ccc(-c2ccccc2)cn1`: the inhibition in the assay listed under Mus musculus came out at 17%.

For the compound `O=C(CCCN1C(=O)c2cc(Cl)c(Cl)cc2C1=O)Nc1ccc(-c2ccccc2)cn1`, the inhibition in the assay filed under Mus musculus was -8%.

For the compound `O=C(CCCN1C(=O)c2ccc(Br)cc2C1=O)Nc1ccc(-c2ccccc2)cn1`, in the assay filed under Mus musculus, the inhibition amounted to 18%.

Regarding `O=C(CCCN1C(=O)c2ccccc2C1=O)Nc1ccc(-c2ccccc2)cn1`, the inhibition in the assay listed under Mus musculus came out at 34%.

By IC50 is commonly meant the midpoint of a concentration-inhibition curve. Low readings indicate greater potency in that assay, high ones weaker potency in that assay. In the case of `Cc1cccc2c1C(=O)N(CC(=O)Nc1ccc(-c3ccccc3)cn1)C2=O`, in the assay listed under Mus musculus, the inhibition was 76%. It took 280 nM to reach half-maximal inhibition in assay [1] (IC50).

In the case of `O=C(CCCN1C(=O)c2cccc(Cl)c2C1=O)Nc1ccc(-c2ccccc2)cn1`, the inhibition in the assay filed under Mus musculus amounted to 46%.

`O=C(CCCN1C(=O)c2ccc(F)c(F)c2C1=O)Nc1ccc(-c2ccccc2)cn1`: the inhibition in the assay listed under Mus musculus was 21%.

Consider `O=C(CCCN1C(=O)c2ccc(C#Cc3ccccc3)cc2C1=O)Nc1ccc(-c2ccccc2)cn1`, for which the inhibition in the assay listed under Mus musculus amounted to 7%.

Take `O=C(CCCN1C(=O)c2cccc(F)c2C1=O)Nc1ccc(-c2ccccc2)cn1`: the inhibition in the assay listed under Mus musculus came to 44%.

Consider `Cc1cc(-c2ncc(CC(=O)Nc3ccc(-c4cnccn4)cn3)cc2C)ccn1` [WNT-974], for which, in the assay listed under Mus musculus, the inhibition amounted to 93%. In assay [1], this compound had an IC50 of 0.57 nM.

As to `Cc1cccc2c1C(=O)N(CCCC(=O)Nc1ccc(-c3ccccc3)cn1)C2=O`, in the assay listed under Mus musculus, the inhibition is 61%. 2790 nM corresponded to half-maximal inhibition in assay [1] (IC50).

Consider `Cc1cccc2c1C(=O)N(C(C)C(=O)Nc1ccc(-c3ccccc3)cn1)C2=O` (stereo not given), for which the inhibition in the assay filed under Mus musculus stood at 39%. In addition, the IC50 in assay [1] is above 10000 nM.

For the compound `Cc1cccc2c1C(=O)N(CCC(=O)Nc1ccc(-c3ccccc3)cn1)C2=O`, in the assay filed under Mus musculus, the inhibition turned out to be 29%. The compound also yielded an IC50 in assay [1] above 10000 nM.
